Measured values as given in patent US4308380A, “2-Lower alkyl-2 or 3-cephem-4-carboxylic acid derivatives” (Fujisawa Pharmaceutical Co., Ltd., priority 1973, dated 1981).
≈ marks a conversion by molar mass, not a printed value. Where a name gives a salt, the structure may show the parent alone. Read-outs that look alike come from different tables or passages of the source.

Tests used:
Assay type in all cases: cell-based
[1] = system: Staphylococcus aureus 206; assay: in vitro antimicrobial activity, two-fold agar plate dilution method, S. aureus 206; details: Table 1, S. aureus 206, 37° C., 20 hours, read-out: minimum inhibitory concentration (MIC)
Protocol: (§1) The in vitro tests of antimicrobial activity of the compared compounds were determined by the two-fold agar plate dilution method described as follows: […]

[2] = system: Staphylococcus aureus 277; assay: in vitro antimicrobial activity, two-fold agar plate dilution method, S. aureus 277; details: Table 1, S. aureus 277, 37° C., 20 hours, read-out: minimum inhibitory concentration (MIC)
Protocol: as §1

[3] = system: Bacillus subtilis ATCC-6633; assay: in vitro antimicrobial activity, two-fold agar-plate dilution method, B. subtilis ATCC-6633
Protocol: (§2) In vitro antimicrobial activity was determined by the two-fold agar-plate dilution method as described below.
(§3) One loopful of an overnight culture of each test strain in Trypticase-soy broth (10^8 viable cells per ml) was streaked on heart infusion agar (HI-agar) containing graded concentration of antibiotics, and the minimum inhibitory concentration (MIC) was expressed in terms of meg/ml after incubation at 37° C. for 20 hours.
(§4) The data in Table 1 below present a comparison between the 2-(C1 -C6 alkyl)-cephem compounds of the present invention and known cephem compounds structurally analogous to the present compounds, differing only by alkyl substitution in the 3-position. The in vitro tests of antimicrobial activity of the compared compounds were determined by the two-fold agar plate dilution method described as follows:
as §3, with “(HI sugar)” for “(HI-agar)”, “mcg/ml” for “meg/ml”

[4] = system: Staphylococcus aureus 209 P JC-1; assay: in vitro antimicrobial activity, two-fold agar-plate dilution method, S. aureus 209 P JC-1
Protocol: as §2, §3, §4
as §3, with “(HI sugar)” for “(HI-agar)”, “mcg/ml” for “meg/ml”

[5] = system: Staphylococcus aureus 213; assay: in vitro antimicrobial activity, two-fold agar plate dilution method, S. aureus 213; details: Table 1, S. aureus 213, 37° C., 20 hours, read-out: minimum inhibitory concentration (MIC)
Protocol: as §1

[6] = system: Staphylococcus aureus 278; assay: in vitro antimicrobial activity, two-fold agar plate dilution method, S. aureus 278; details: Table 1, S. aureus 278, 37° C., 20 hours, read-out: minimum inhibitory concentration (MIC)
Protocol: as §1

[7] = system: Staphylococcus aureus 226; assay: in vitro antimicrobial activity, two-fold agar plate dilution method, S. aureus 226; details: Table 1, S. aureus 226, 37° C., 20 hours, read-out: minimum inhibitory concentration (MIC)
Protocol: as §1

[8] = ATCC6633, B. subtilis ATCC-6633, 37° C., 20 hours, HI-agar, read-out: MIC
[9] = ATCC6633, Table 1, B. subtilis ATCC-6633, 37° C., 20 hours, read-out: minimum inhibitory concentration (MIC)
[10] = 209PJC1, Table 1, S. aureus 209 P JC-1, 37° C., 20 hours, read-out: minimum inhibitory concentration (MIC)
[11] = S. aureus 209-P JC-1, 37° C., 20 hours, HI-agar, read-out: MIC

Row | SMILES | MIC [1] [µg/mL] | MIC [2] [µg/mL] | MIC ([3]; ATCC6633, 20 h, read-out: minimum inhibitory concentration (MIC)) [µg/mL] | MIC ([4]; 209PJC1, 20 h, read-out: minimum inhibitory concentration (MIC)) [µg/mL] | MIC [5] [µg/mL] | MIC [6] [µg/mL] | MIC [7] [µg/mL] | MIC [3, 8] [µg/mL] | MIC [3, 9] [µg/mL] | MIC [4, 10] [µg/mL] | MIC [4, 11] [µg/mL]
1 | CC1=C(C(=O)O)N2C(=O)C(NC(=O)Cc3ccccc3)[C@H]2SC1 (some centres unmarked) [cited compound (8), 3-Methyl-7-(2-phenylacetamido)-3-cephem-4-carboxylic acid, reference compound] | 6.25 (≈ 18.8 µM) | 1.56 (≈ 4.69 µM) | 0.78 (≈ 2.35 µM) | 1.56 (≈ 4.69 µM) | 6.25 (≈ 18.8 µM) | 3.13 (≈ 9.42 µM) | 3.13 (≈ 9.42 µM) |  |  |  | 
2 | CC1C=C(C(=O)O)N2C(=O)C(NC(=O)C(OC(=O)c3ccncc3)c3ccccc3)[C@H]2S1 (some centres unmarked) [Applicants' compound (4), 2-Methyl-7-(2-isonicotinoyloxy-2-phenylacetamido)-3-cephem-4-carboxylicacid] | 0.78 (≈ 1.72 µM) | 6.25 (≈ 13.8 µM) |  |  | 1.56 (≈ 3.44 µM) | 1.56 (≈ 3.44 µM) | 0.78 (≈ 1.72 µM) | 0.78 (≈ 1.72 µM) | 0.78 (≈ 1.72 µM) | 0.39 (≈ 0.86 µM) | 0.39 (≈ 0.86 µM)
3 | CC1=C(C(=O)O)N2C(=O)C(NC(=O)C(O)c3cccs3)C2SC1 (centres unmarked) [cited compound (2), 3-Methyl-7-[2-hydroxy-2-(2-thienyl)acetamido]-3-cephem-4-carboxylic acid (sodium salt), reference compound] | 6.25 | 12.5 |  |  | 25 | 12.5 | 12.5 |  | 1.56 | 6.25 | 
4 | CC1C=C(C(=O)O)N2C(=O)C(NC(=O)Cc3cccnc3)[C@H]2S1 (some centres unmarked) [Applicants' compound (15), 2-Methyl-7-[2-(3-pyridyl)acetamido]-3-cephem-4-carboxylic acid] | 6.25 (≈ 18.7 µM) | 25 (≈ 75 µM) |  |  | 6.25 (≈ 18.7 µM) | 6.25 (≈ 18.7 µM) | 6.25 (≈ 18.7 µM) | 0.78 (≈ 2.34 µM) | 0.78 (≈ 2.34 µM) | 3.13 (≈ 9.39 µM) | 3.13 (≈ 9.39 µM)
5 | C=CCSCC(=O)NC1C(=O)N2C(C(=O)O)=CC(C)S[C@H]12 (some centres unmarked) [Applicants' compound (14), 2-Methyl-7-[2-(allylthio)acetamido]-3-cephem-4-carboxylic acid] | 3.13 (≈ 9.53 µM) | 1.56 (≈ 4.75 µM) |  |  | 6.25 (≈ 19 µM) | 3.13 (≈ 9.53 µM) | 3.13 (≈ 9.53 µM) | 1.56 (≈ 4.75 µM) | 1.56 (≈ 4.75 µM) | 1.56 (≈ 4.75 µM) | 1.56 (≈ 4.75 µM)
6 | CC1C=C(C(=O)O)N2C(=O)C(NC(=O)CSc3nncs3)[C@H]2S1 (some centres unmarked) [Applicants' compound (11), 2-Methyl-7-[2-(1,3,4-thiadiazol-2-ylthio)acetamido]-3-cephem-4-carboxylic acid] | 3.13 (≈ 8.4 µM) | 3.13 (≈ 8.4 µM) |  |  | 6.25 (≈ 16.8 µM) | 6.25 (≈ 16.8 µM) | 3.13 (≈ 8.4 µM) | 0.78 (≈ 2.09 µM) | 0.78 (≈ 2.09 µM) | 1.56 (≈ 4.19 µM) | 1.56 (≈ 4.19 µM)
7 | CC1C=C(C(=O)O)N2C(=O)C(NC(=O)Cc3ccccc3)[C@H]2S1 (some centres unmarked) [Applicants' compound (8), 2-Methyl-7-(2-phenylacetamido)-3-cephem-4-carboxylic acid] | 1.56 (≈ 4.69 µM) | 3.13 (≈ 9.42 µM) |  |  | 1.56 (≈ 4.69 µM) | 1.56 (≈ 4.69 µM) | 1.56 (≈ 4.69 µM) | 0.2 (≈ 0.602 µM) | 0.2 (≈ 0.602 µM) | 0.78 (≈ 2.35 µM) | 0.78 (≈ 2.35 µM)
8 | CC1=C(C(=O)O)N2C(=O)C(NC(=O)Cc3cccnc3)[C@H]2SC1 (some centres unmarked) [cited compound (15), 3-Methyl-7-[2-(3-pyridyl)acetamido]-3-cephem-4-carboxylic acid, reference compound] | 12.5 (≈ 37.5 µM) | 6.25 (≈ 18.7 µM) |  |  | 25 (≈ 75 µM) | 12.5 (≈ 37.5 µM) | 12.5 (≈ 37.5 µM) |  | 1.56 (≈ 4.68 µM) | 6.25 (≈ 18.7 µM) | 
9 | CC1C=C(C(=O)O)N2C(=O)C(NC(=O)CSc3ccccc3)C2S1 (centres unmarked) [Applicants' compound (9), 2-Methyl-7-(2-phenylthioacetamido)-3-cephem-4-carboxylic acid] | 0.39 (≈ 1.07 µM) | 1.56 (≈ 4.28 µM) |  |  | 0.39 (≈ 1.07 µM) | 0.78 (≈ 2.14 µM) | 0.39 (≈ 1.07 µM) | 0.2 (≈ 0.549 µM) | 0.2 (≈ 0.549 µM) | 0.2 (≈ 0.549 µM) | 0.2 (≈ 0.549 µM)
10 | CC1C=C(C(=O)O)N2C(=O)C(NC(=O)C(O)c3ccccc3)[C@H]2S1 (some centres unmarked) [Applicants' compound (7), 2-Methyl-7-(2-hydroxy-2-phenylacetamido)-3-cephem-4-carboxylic acid] | 1.56 (≈ 4.48 µM) | 6.25 (≈ 17.9 µM) |  |  | 1.56 (≈ 4.48 µM) | 1.56 (≈ 4.48 µM) | 1.56 (≈ 4.48 µM) | 0.39 (≈ 1.12 µM) | 0.39 (≈ 1.12 µM) | 0.78 (≈ 2.24 µM) | 0.78 (≈ 2.24 µM)
11 | CC1C=C(C(=O)O)N2C(=O)C(NC(=O)C(N=[N+]=[N-])c3ccccc3)[C@H]2S1 (some centres unmarked) [Applicants' compound (10), 2-Methyl-7-(2-azido-2-phenylacetamido)-3-cephem-4-carboxylic acid] | 1.56 (≈ 4.18 µM) | 12.5 (≈ 33.5 µM) |  |  | 1.56 (≈ 4.18 µM) | 1.56 (≈ 4.18 µM) | 1.56 (≈ 4.18 µM) | 0.39 (≈ 1.04 µM) | 0.39 (≈ 1.04 µM) | 1.56 (≈ 4.18 µM) | 1.56 (≈ 4.18 µM)
12 | CC1C=C(C(=O)O)N2C(=O)C(NC(=O)Cc3cnsn3)[C@H]2S1 (some centres unmarked) [Applicants' compound (12), 2-Methyl-7-[2-(1,2,5-thiadiazol-3-yl)acetamido]-3-cephem-4-carboxylic acid] | 3.13 (≈ 9.2 µM) | 6.25 (≈ 18.4 µM) |  |  | 6.25 (≈ 18.4 µM) | 6.25 (≈ 18.4 µM) | 3.13 (≈ 9.2 µM) | 1.56 (≈ 4.58 µM) | 1.56 (≈ 4.58 µM) | 3.13 (≈ 9.2 µM) | 3.13 (≈ 9.2 µM)
13 | CC1C=C(C(=O)O)N2C(=O)C(NC(=O)C(NC(=O)CSc3nncs3)c3ccccc3)[C@H]2S1 (some centres unmarked) [Applicants' compound (1), 2-Methyl-7-[N-[2-(1,3,4-thiadiazol-2-ylthio)acetyl]phenylglycyl]amino-3-cephem-4-carboxylic acid] | 3.13 (≈ 6.19 µM) | 12.5 (≈ 24.7 µM) |  |  | 3.13 (≈ 6.19 µM) | 3.13 (≈ 6.19 µM) | 1.56 (≈ 3.09 µM) | 3.13 (≈ 6.19 µM) | 3.13 (≈ 6.19 µM) | 1.56 (≈ 3.09 µM) | 1.56 (≈ 3.09 µM)
14 | CC1=C(C(=O)O)N2C(=O)C(NC(=O)Cc3cnsn3)[C@H]2SC1 (some centres unmarked) [cited compound (12), 3-Methyl-7-[2-(1,2,5-thiadiazol-3-yl)acetamido]-3-cephem-4-carboxylic acid, reference compound] | 12.5 (≈ 36.7 µM) | 25 (≈ 73.4 µM) |  |  | 25 (≈ 73.4 µM) | 25 (≈ 73.4 µM) | 25 (≈ 73.4 µM) |  | 3.13 (≈ 9.2 µM) | 12.5 (≈ 36.7 µM) | 
15 | CC1=C(C(=O)O)N2C(=O)C(NC(=O)C(O)c3ccccc3)[C@H]2SC1 (some centres unmarked) [cited compound (7), 3-Methyl-7-(2-hydroxy-2-phenylacetamido)-3-cephem-4-carboxylic acid, reference compound] | 12.5 (≈ 35.9 µM) | 12.5 (≈ 35.9 µM) |  |  | 25 (≈ 71.8 µM) | 12.5 (≈ 35.9 µM) | 12.5 (≈ 35.9 µM) |  | 1.56 (≈ 4.48 µM) | 3.13 (≈ 8.98 µM) | 
16 | CC1=C(C(=O)O)N2C(=O)C(NC(=O)CSc3ccccc3)C2SC1 (centres unmarked) [cited compound (9), 3-Methyl-7-(2-phenylthioacetamido)-3-cephem-4-carboxylic acid, reference compound] | 0.39 (≈ 1.07 µM) | 0.39 (≈ 1.07 µM) |  |  | 0.78 (≈ 2.14 µM) | 0.39 (≈ 1.07 µM) | 1.56 (≈ 4.28 µM) |  | 0.39 (≈ 1.07 µM) | 0.39 (≈ 1.07 µM) | 
17 | C=CCSCC(=O)NC1C(=O)N2C(C(=O)O)=C(C)CS[C@H]12 (some centres unmarked) [cited compound (14), 3-Methyl-7-[2-(allylthio)acetamido]-3-cephem-4-carboxylic acid, reference compound] | 6.25 (≈ 19 µM) | 6.25 (≈ 19 µM) |  |  | 12.5 (≈ 38.1 µM) | 6.25 (≈ 19 µM) | 6.25 (≈ 19 µM) |  | 3.13 (≈ 9.53 µM) | 6.25 (≈ 19 µM) | 
18 | CC1=C(C(=O)O)N2C(=O)C(NC(=O)CSc3nncs3)[C@H]2SC1 (some centres unmarked) [cited compound (11), 3-Methyl-7-[2-(1,3,4-thiadiazol-2-ylthio)acetamido]-3-cephem-4-carboxylic acid, reference compound] | 3.13 (≈ 8.4 µM) | 6.25 (≈ 16.8 µM) |  |  | 6.25 (≈ 16.8 µM) | 3.13 (≈ 8.4 µM) | 6.25 (≈ 16.8 µM) |  | 1.56 (≈ 4.19 µM) | 3.13 (≈ 8.4 µM) | 
19 | CC1C=C(C(=O)O)N2C(=O)C(NC(=O)C(C(=O)Oc3ccc4c(c3)CCC4)c3ccccc3)[C@H]2S1 (some centres unmarked) [Applicants' compound (3), 2-Methyl-7-[2-(5-indanyloxy)carbonyl-2-phenylacetamido]-3-cephem-4-carboxylic acid] | 0.39 (≈ 0.792 µM) | 0.78 (≈ 1.58 µM) |  |  | 0.39 (≈ 0.792 µM) | 0.39 (≈ 0.792 µM) | 0.2 (≈ 0.406 µM) | 6.25 (≈ 12.7 µM) | 6.25 (≈ 12.7 µM) | 1.56 (≈ 3.17 µM) | 1.56 (≈ 3.17 µM)
